T1: human CRT-ECD protein (OBI Pharma Inc., in-house produced) (human, UniProt P27797 18-417, limits assumed)
T1 construct: extracellular domain; Coated at 200 ng per well for ELISA; also called calreticulin
T1 sequence (looked up): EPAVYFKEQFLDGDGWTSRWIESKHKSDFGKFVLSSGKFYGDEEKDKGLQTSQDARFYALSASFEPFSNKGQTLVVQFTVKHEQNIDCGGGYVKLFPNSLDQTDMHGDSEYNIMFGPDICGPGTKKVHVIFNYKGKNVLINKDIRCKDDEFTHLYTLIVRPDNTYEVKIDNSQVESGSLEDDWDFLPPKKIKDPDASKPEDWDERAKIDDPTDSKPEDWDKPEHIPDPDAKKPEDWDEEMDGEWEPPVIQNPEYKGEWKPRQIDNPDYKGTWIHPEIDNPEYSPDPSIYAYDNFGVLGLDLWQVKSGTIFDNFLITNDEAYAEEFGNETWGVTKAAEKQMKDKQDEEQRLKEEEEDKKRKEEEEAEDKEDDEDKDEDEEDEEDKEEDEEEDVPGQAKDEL

B1: α-CRT antibody 5B3-1 (OBI Pharma, Inc.) (antibody, V domains shown)
VH: EVQLVETGGGLVQPKGSLKLSCAASGFSFNNNAMNWVRQAPGKGLEWVARIRSKTNNYEIYYAESVKDRFTISRDDSQSMLYLQMNNLKTDDTAMYYCVRDYNHVGFVYWGQGTQVTVST
VL: DIVMTQTTPSVPVTPGESVSISCRSSKSLLYSNGNTYLYWFLQRPGQSPQLLIYRMSNLASGVPDRFSGSGSGTAFTLRISRVEAEDVGVYYCMQHLEYPFTFGAGTKLELK
notes: also called Anti-CRT (5B3-1)

Legend:
[1] = tested on: Mouse Pan T cells with co-cultured MutuDC 1940 cells and 4T1 cells; experiment: T cell proliferation primed by dendritic cell loaded with tumor cell; format: cell-based; details: DCs cocultured with 4T1 cells treated with 100 μM Oxaliplatin, T cells 72 hours
Protocol: Then, cells were collected and counted. […] Cells were washed and counted. 5-fold Far Red labeled mouse Pan T cells were added to the co-cultured MutuDC 1940 cells and 4T1 cells for another 72 hours. […] Another CD8^+T-cell proliferation was calculated by gating on CD3^+/CD4^− cells and setting a marker that contained at least 98% of cells in unstimulated samples.

[2] = tested on: MutuDC 1940 cells and 4T1 cells; experiment: Dendritic cell-mediated phagocytosis of tumor cell; details: 4T1 cells treated with 100 μM Oxaliplatin for two days; untreated 31.03%
Protocol: Mouse 4T1 breast cancer cells were labeled with CellTrace™ Far Red staining solution (ThermoFisher, Cat #C34564) at 37° C. for 30 minutes and then washed with PBS. Cells were seeded overnight in a 6-well plate. After cultivating overnight, cells were treated or not with 100 μM Oxaliplatin for two days. Then, cells were collected and counted. An equal number of MutuDC 1940 cells and 4T1 cells were mixed and incubated at 37° C. for the indicated time. After treatment, cells were collected and stained with anti-mouse CD11c-BV421 (Biolegend, Cat #117330) antibody at 4° C. for 30 minutes. Cells were washed and centrifuged, then analyzed by FACS CANTOII. 4T1 cell incorporation in MutuDC 1940 cells evaluated as the percentage of CD11c positive for far-red fluorescence incorporation.

4T1 breast cancer cells = details: Oxaliplatin 5 mg/kg intravenous, BsAb 20 μg intratumor, days 7, 13 and 20; sacrificed Day 27
Protocol: 1×10^5 4T1 breast cancer cells was injected through subcutaneous injection (s.c. injection) on the right flank of mice in 100 μL sterile PBS. Five mice of each were randomized into three treatment groups on day 7 following tumor inoculation when the tumor size reached 50 mm^3. […] Tumor length, and width were recorded weekly. Tumor volumes were calculated using the formula: volume (mm^3)=([width]^2×length)/2. Results were shown as arithmetic meantstandard error of the mean (SEM). Statistical comparisons were performed by two-tailed Student's t-test. Significance set of probability “p” was set as the level at *p<0.05, **p<0.01, ***, p<0.001. […] Mice were sacrificed at Day 27.

[3] = tested on: Mouse 4T1 breast cancer cells; experiment: ATP release to supernatant, CellTiter-Glo Luminescent Assay; format: cell-based; details: 100 μM Oxaliplatin for two days
Protocol: Furthermore, supernatants were collected and centrifuged then the ATP in the supernatant was determined by CellTiter-Glo® Luminescent Assay (Promega, Cat #G7570). Briefly, an equal volume of the collected supernatants and reagent were mixed and incubated in the dark for 10 minutes at room temperature. The luminescence was determined by a luminometer (MolecularDevice, SpectraMax L).

[4] = tested on: Mouse 4T1 breast cancer cells; experiment: Exposure of endogenous danger signals (surface CRT, Hsp70) on tumor cells, flow cytometry; format: cell-based; details: 100 μM Oxaliplatin for two days
[5] = tested on: oxaliplatin treated 4T1 cells; experiment: Cell binding assay (FACS) on oxaliplatin treated tumor cells; design: species or system mouse; details: 30 nM antibody
[6] = biological target: T1, human CRT-ECD protein (OBI Pharma Inc., …); experiment: ELISA, antigen coated at 200 ng per well, anti-mouse IgG-HRP detection

| EC50 [6] [nM] | Molecule | proliferation of CD8+ T-cells [1] | DC-mediated phagocytosis of 4T1 cells by MutuDC 1940 cells (percentage of CD11c positive for far-red) [2] [%] | 4T1 tumor growth versus control (4T1 breast cancer cells) | ATP released to the medium [3] | surface Hsp70 on live 4T1 cells ([4]; untreated 3.2%) [%] | surface CRT on live 4T1 cells ([4]; untreated 6.5%) [%] | binding activity on oxaliplatin treated 4T1 cells [5] [%] |
| --- | --- | --- | --- | --- | --- | --- | --- | --- |
|  | O=C1[O][Pt]2([NH][C@@H]3CCCC[C@H]3[NH]2)[O]C1=O [Oxaliplatin] | increased | 43.3 | no difference | increased | 11 | 59 |  |
| 0.407 | B1 |  |  |  |  |  |  | 41.2 |
